# In ChEMBL document CHEMBL1147576, “Synthesis and evaluation of S-4-(3-thienyl)phenyl-alpha-methylacetic acid” (Bioorg Med Chem Lett, 2004):
# Target: T1, Prostaglandin G/H synthase 1 (Ovis aries, UniProt P05979)
# T1 sequence (P05979 whole entry): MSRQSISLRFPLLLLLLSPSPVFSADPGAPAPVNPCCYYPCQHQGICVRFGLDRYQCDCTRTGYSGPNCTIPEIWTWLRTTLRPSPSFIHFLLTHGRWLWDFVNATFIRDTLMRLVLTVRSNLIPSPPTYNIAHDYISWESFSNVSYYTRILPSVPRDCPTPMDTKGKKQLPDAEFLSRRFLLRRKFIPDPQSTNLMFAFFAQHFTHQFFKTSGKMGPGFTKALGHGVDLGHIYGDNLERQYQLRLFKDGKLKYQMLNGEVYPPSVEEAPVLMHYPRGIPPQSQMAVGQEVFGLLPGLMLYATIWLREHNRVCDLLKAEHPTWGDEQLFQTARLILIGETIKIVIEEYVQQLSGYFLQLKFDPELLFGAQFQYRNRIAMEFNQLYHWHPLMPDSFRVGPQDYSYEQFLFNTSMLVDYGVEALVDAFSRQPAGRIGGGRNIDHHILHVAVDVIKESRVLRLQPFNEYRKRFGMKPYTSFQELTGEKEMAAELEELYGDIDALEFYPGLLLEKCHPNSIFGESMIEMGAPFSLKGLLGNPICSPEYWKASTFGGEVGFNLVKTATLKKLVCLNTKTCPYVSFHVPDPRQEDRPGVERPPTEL
# Assay: In vitro inhibitory concentration against ram seminal vesicle prostaglandin G/H synthase 1
# Assay type: tissue-based
row,IC50 [µM],SMILES
1,45.2,C[C@H](C(=O)O)c1ccc(-c2ccsc2)cc1

# Tested on: Rattus norvegicus
# Assay: Effective dose for Anti-inflammatory activity was determined by carrageenan induced rat hind paw edema model
# Assay type: functional
row,SMILES,ED50 [mg/kg]
1,CC(C)Cc1ccc([C@H](C)C(=O)O)cc1 [DEXIBUPROFEN],7.08
2,CC(C(=O)O)c1ccc(-c2ccsc2)cc1 (configuration not stated) [ATLIPROFEN],5.74
3,COc1ccc2cc(C(C)C(=O)O)ccc2c1 (configuration not stated),2.35
4,C[C@H](C(=O)O)c1ccc(-c2ccsc2)cc1,1.85
5,COc1ccc2cc([C@H](C)C(=O)O)ccc2c1 [NAPROXEN],0.99
6,CC(C)Cc1ccc(C(C)C(=O)O)cc1 (configuration not stated) [IBUPROFEN],33.2
